Measured values as given in US20250026753A1, “FUSED TRIAZINONE DERIVATIVES AND METHODS OF USING THE SAME” (Rgenta Therapeutics, Inc., priority 2021, published 2025).
Counter-ions that a name gives are not always drawn.

Assays:
COLO201 = assay: Cell proliferation assay (CellTiterGlo, 72 hour incubation), COLO201; format: cell-based; settings: Homo sapiens, COLO 201, COLO201 cells, inhibition of cell proliferation, CellTiterGlo luminescence
Experimental: (§1) Various cancer cell lines including K562 and COLO201, were treated with the compounds of the present disclosure to assess their effect on inhibiting cell proliferation.
(§2) For compound preparation, test compounds were diluted in duplicates from 10 mM stocks in 11-points 1:3 serial dilutions in DMSO. Then 125 nL test compounds at the serial dilutions were dispensed into 384-well assay plate using Echo dispenser. Staurosporine at 1 mM stock (5 μM final concentration) and DMSO (0.500 final concentration) were used as the positive and negative controls respectively.
(§3) To prepare cell lines, each frozen cell line stock was resuspended and grown in proper growth medium to a density of 40,000 cells/mL. Then 25 μL of cell suspension were dispensed into the assay plate to give seed cell density at 1,000 cells/well, compounds at 50 μM top concentration with 11-point serial dilutions, and 0.5% o DMSO final concentration. Assay plates were then centrifuged at 300 rpm for 1 minute and then incubated at 37° C., 9500 humidity, 500 CO2 for 72 hours. After the 72 hour incubation, the assay plate and its contents were equilibrated at room temperature for approximately 30 minutes. 25 μL of CellTiterGlo reagent was added to the assay plate and mixed for two minutes on an orbital shaker. Then after 10 minutes of incubation of assay plate at from temperature, the luminescence (RLU) signals in each well were recorded using Envision plate reader, then converted to percentage inhibition values using the signals in staurosporine and DMSO treated wells as the references. IC50 values were determined by curve fitting in Levenberg-Marquardt algorithm.

K562 = assay: Cell proliferation assay (CellTiterGlo, 72 hour incubation), K562; format: cell-based; settings: Homo sapiens, K562 cells, inhibition of cell proliferation, CellTiterGlo luminescence
Experimental: as §1, §2, §3

SMILES	IC50 (COLO201) [µM]	IC50 (K562) [µM]
Cc1cn2cc(-c3nc(=O)n4cc(N5CC6CCCC(C5)N6)ccc4n3)cc(F)c2n1 [Compound 118, 7-(3,9-diazabicyclo[3.3.1]nonan-3-yl)-2-(8-fluoro-2-methylimidazo[1,2-a]pyridin-6-yl)-4H-pyrido[1,2-a][1,3,5]triazin-4-one hydrochloride]	1 to 10	< 1
COc1cc2nc(-c3cc(F)c4nc(C)cn4c3)nc(=O)n2cc1N1CCNCC1 [Compound 119, 2-(8-fluoro-2-methylimidazo[1,2-a]pyridin-6-yl)-8-methoxy-7-(piperazin-1-yl)-4H-pyrido[1,2-a][1,3,5]triazin-4-one]	1 to 10	1 to 10
COc1c(N2CCNCC2)ccc2nc(-c3cc(F)c4nc(C)cn4c3)nc(=O)n12 [Compound 120, 2-(8-fluoro-2-methylimidazo[1,2-a]pyridin-6-yl)-6-methoxy-7-(piperazin-1-yl)-4H-pyrido[1,2-a][1,3,5]triazin-4-one formic acid]	≥ 10	≥ 10
Cc1cn2cc(-c3nc(=O)n4cc(N5CCN[C@@H](C)C5)cc(F)c4n3)cc(C)c2n1 [Compound 121, (S)-2-(2,8-dimethylimidazo[1,2-a]pyridin-6-yl)-9-fluoro-7-(3-methylpiperazin-1-yl)-4H-pyrido[1,2-a][1,3,5]triazin-4-one hydrochloride]	< 1	< 1
Cc1cn2cc(-c3nc(=O)n4c(C)c(N5CCNCC5)ccc4n3)cc(F)c2n1 [Compound 122, 2-(8-fluoro-2-methylimidazo[1,2-a]pyridin-6-yl)-6-methyl-7-(piperazin-1-yl)-4H-pyrido[1,2-a][1,3,5]triazin-4-one hydrochloride]	≥ 10	1 to 10
Cc1cn2cc(-c3nc(=O)n4cc(N5CC6(CNC6)C5)ccc4n3)cc(F)c2n1 [Compound 127, 7-2,6-diazaspiro[3.3]heptan-2-yl-2-8-fluoro-2-methylimidazo[1,2-a]pyridin-6-yl-4H-pyrido[1,2-a][1,3,5]triazin-4-one trifluoroacetic acid]	≥ 10	1 to 10
Cc1cc2cc(-c3nc(=O)n4cc(N5CCN[C@@H](C)C5)cc(F)c4n3)cc(C)n2n1 [Compound 131, 2-{2,7-dimethylpyrazolo[1,5-a]pyridin-5-yl}-9-fluoro-7-[(3S)-3-methylpiperazin-1-yl]-4H-pyrido[1,2-a][1,3,5]triazin-4-one]	< 1	< 1
C[C@H]1CN(c2ccc3nc(-c4cc(F)c5nn(C)cc5c4)nc(=O)n3c2)CCN1 [Compound 133, (S)-2-(7-fluoro-2-methyl-2H-indazol-5-yl)-7-(3-methylpiperazin-1-yl)-4H-pyrido[1,2-a][1,3,5]triazin-4-one hydrochloride]	1 to 10	< 1
